Measurements from US20240150325A1, “NOVEL COMPOUND AS PROTEIN KINASE INHIBITORS” (LG CHEM, LTD., priority 2021, published 2024).

Experiments:
MET = MET (Homo sapiens, UniProt P08581); assay: Evaluation of inhibitory activity to MET; format: biochemical
Excerpt: (§1) Experimental Example 1. Evaluation of Inhibitory Activity to RON and MET

RON = RON (Homo sapiens, UniProt Q04912); assay: Evaluation of inhibitory activity to RON; format: biochemical
Excerpt: as §1

Chain of RON (Q04912 25-1400): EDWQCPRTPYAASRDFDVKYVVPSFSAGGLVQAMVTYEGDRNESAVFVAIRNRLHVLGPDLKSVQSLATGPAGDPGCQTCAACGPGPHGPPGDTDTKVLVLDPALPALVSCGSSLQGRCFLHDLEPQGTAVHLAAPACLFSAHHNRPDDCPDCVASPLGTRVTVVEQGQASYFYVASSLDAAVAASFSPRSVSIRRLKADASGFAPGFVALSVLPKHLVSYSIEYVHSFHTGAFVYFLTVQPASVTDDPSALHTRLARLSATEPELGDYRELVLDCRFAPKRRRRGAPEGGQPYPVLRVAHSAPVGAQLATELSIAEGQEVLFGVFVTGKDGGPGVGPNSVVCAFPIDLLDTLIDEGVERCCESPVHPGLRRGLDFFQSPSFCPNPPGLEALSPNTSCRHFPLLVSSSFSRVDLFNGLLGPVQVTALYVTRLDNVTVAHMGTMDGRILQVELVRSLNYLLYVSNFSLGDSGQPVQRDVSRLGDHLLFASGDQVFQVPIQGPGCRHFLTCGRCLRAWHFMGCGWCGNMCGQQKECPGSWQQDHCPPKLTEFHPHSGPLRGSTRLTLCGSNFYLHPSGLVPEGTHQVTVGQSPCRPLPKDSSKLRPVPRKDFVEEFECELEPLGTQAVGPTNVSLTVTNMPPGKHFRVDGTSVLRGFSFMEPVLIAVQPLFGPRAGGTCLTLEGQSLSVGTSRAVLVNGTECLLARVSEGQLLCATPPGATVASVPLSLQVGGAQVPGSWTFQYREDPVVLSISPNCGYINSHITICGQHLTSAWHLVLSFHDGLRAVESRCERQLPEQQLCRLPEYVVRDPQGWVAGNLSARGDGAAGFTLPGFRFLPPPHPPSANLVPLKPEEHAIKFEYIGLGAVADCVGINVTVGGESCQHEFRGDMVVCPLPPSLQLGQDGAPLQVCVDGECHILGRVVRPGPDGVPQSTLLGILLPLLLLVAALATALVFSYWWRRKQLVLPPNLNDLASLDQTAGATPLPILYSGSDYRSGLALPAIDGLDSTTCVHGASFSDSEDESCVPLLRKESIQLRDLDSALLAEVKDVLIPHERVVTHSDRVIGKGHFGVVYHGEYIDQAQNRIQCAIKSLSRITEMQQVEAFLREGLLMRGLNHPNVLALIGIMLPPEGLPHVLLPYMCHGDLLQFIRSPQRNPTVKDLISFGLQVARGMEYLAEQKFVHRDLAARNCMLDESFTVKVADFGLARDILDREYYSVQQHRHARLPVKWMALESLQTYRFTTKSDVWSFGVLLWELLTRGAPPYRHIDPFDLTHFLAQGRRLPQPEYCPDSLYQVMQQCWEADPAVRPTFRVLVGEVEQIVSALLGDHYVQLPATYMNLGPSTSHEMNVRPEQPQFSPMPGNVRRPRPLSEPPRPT
Chain of MET (P08581 25-1390): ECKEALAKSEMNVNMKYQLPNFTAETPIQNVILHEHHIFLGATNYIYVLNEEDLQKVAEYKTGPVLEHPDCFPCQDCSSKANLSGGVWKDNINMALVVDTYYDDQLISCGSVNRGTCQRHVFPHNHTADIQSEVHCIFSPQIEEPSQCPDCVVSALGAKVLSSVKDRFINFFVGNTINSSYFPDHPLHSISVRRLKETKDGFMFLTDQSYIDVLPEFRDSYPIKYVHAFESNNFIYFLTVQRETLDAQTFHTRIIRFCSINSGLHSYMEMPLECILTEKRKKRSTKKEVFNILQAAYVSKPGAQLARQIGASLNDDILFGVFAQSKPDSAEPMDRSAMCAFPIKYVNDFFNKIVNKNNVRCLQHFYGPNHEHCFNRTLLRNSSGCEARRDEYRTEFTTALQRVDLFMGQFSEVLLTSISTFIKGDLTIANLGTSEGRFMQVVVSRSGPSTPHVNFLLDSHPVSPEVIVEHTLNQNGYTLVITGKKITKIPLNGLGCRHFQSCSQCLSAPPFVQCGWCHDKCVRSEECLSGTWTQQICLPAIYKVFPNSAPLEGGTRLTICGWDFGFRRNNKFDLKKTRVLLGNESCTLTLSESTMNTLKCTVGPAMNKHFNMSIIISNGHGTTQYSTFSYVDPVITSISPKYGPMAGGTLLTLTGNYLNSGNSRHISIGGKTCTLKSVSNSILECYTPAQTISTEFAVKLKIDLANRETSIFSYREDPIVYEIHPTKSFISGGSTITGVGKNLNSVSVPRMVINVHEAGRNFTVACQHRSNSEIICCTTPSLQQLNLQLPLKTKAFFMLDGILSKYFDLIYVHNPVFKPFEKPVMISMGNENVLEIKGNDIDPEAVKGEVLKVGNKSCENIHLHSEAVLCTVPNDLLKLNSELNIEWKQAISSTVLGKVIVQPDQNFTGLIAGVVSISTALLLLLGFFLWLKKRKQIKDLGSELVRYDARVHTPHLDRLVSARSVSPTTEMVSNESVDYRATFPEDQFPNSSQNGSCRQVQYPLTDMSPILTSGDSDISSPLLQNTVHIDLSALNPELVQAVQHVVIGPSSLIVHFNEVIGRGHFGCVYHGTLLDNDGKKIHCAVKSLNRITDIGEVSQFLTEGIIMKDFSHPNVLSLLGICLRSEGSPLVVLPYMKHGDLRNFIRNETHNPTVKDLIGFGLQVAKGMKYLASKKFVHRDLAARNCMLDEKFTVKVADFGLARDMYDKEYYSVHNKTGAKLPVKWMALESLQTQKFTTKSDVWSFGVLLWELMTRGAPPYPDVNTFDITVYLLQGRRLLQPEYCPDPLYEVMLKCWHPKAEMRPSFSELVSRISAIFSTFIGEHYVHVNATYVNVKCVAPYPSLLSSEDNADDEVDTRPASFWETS

IC50 (MET) | IC50 (RON) | SMILES
0.115 µM | 0.876 µM | Cc1c(C(=O)Nc2ccc(Oc3ccc(O)c(-c4ccnc(N)n4)c3)c(F)c2)c(=O)n(-c2ccccc2)n1CC(C)(C)O [Example 52, N-(4-(3-(2-aminopyrimidin-4-yl)-4-hydroxyphenoxy)-3-fluorophenyl)-1-(2-hydroxy-2-methylpropyl)-5-methyl-3-oxo-2-phenyl-2,3-dihydro-1H-pyrazol-4-carboxamide]
0.049 µM | 0.248 µM | Cc1ccc(C(=O)Nc2ccc(Nc3ccc(O)c(-c4ccnc(N)n4)c3)c(F)c2)c(=O)n1-c1ccc(F)cc1 [Example 30, N-(4-((3-(2-aminopyrimidin-4-yl)-4-hydroxyphenyl)amino)-3-fluorophenyl)-1-(4-fluorophenyl)-6-methyl-2-oxo-1,2-dihydropyridin-3-carboxamide]
0.012 µM | 0.133 µM | Nc1nccc(-c2cc(Oc3ccc(NC(=O)c4ccc(CO)n(-c5ccc(F)cc5)c4=O)cc3F)ccc2O)n1 [Example 50, N-(4-(3-(2-aminopyrimidin-4-yl)-4-hydroxyphenoxy)-3-fluorophenyl)-1-(4-fluorophenyl)-6-(hydroxymethyl)-2-oxo-1,2-dihydropyridin-3-carboxamide]
0.048 µM | 0.279 µM | Cc1c(C(=O)Nc2ccc(Oc3ccc(O)c(-c4ccnc(N)n4)c3)c(F)c2)c(=O)n(-c2ccccc2)n1C [Example 43, N-(4-(3-(2-aminopyrimidin-4-yl)-4-hydroxyphenoxy)-3-fluorophenyl)-1,5-dimethyl-3-oxo-2-phenyl-2,3-dihydro-1H-pyrazol-4-carboxamide]
2.94 µM | 1.33 µM | CCOc1ccn(-c2ccc(F)cc2)c(=O)c1C(=O)Nc1ccc(-c2ccc(O)c(-c3ccnc(N)n3)c2)c(C)c1 [Example 13, N-(3′-(2-aminopyrimidin-4-yl)-4′-hydroxy-2-methyl-[1,1′-biphenyl]-4-yl)-4-ethoxy-1-(4-fluorophenyl)-2-oxo-1,2-dihydropyridin-3-carboxamide]
1.71 µM | 0.855 µM | Nc1nccc(-c2cc(-c3ccc(NC(=O)c4ccc(CO)n(-c5ccc(F)cc5)c4=O)cc3F)ccc2O)n1 [Example 10, N-(3′-(2-aminopyrimidin-4-yl)-2-fluoro-4′-hydroxy-[1,1′-biphenyl]-4-yl)-1-(4-fluorophenyl)-6-(hydroxymethyl)-2-oxo-1,2-dihydropyridin-3-carboxamide]
0.099 µM | 1.45 µM | Cc1ccc(C(=O)Nc2ccc(Oc3ccc(O)c(-c4cc[nH]n4)c3)c(F)c2)c(=O)n1-c1ccc(F)cc1 [Example 58, N-(3-Fluoro-4-(4-hydroxy-3-(1H-pyrazol-3-yl)phenoxy)phenyl)-1-(4-fluorophenyl)-6-methyl-2-oxo-1,2-dihydropyridin-3-carboxamide]
> 10 µM | 2.3 µM | CCOc1ccn(-c2ccc(F)cc2)c(=O)c1C(=O)Nc1ccc(-c2ccc(OC)c(-c3cnc(N)nc3)c2)c(F)c1 [Example 17, N-(3′-(2-aminopyrimidin-5-yl)-2-fluoro-4′-methoxy-[1,1′-biphenyl]-4-yl)-4-ethoxy-1-(4-fluorophenyl)-2-oxo-1,2-dihydropyridin-3-carboxamide]
0.064 µM | 0.023 µM | Nc1nccc(-c2cc(Oc3ccc(NC(=O)c4cc(C5CC5)cn(-c5ccc(F)cc5)c4=O)cc3F)ccc2O)n1 [Example 48, N-(4-(3-(2-aminopyrimidin-4-yl)-4-hydroxyphenoxy)-3-fluorophenyl)-5-cyclopropyl-1-(4-fluorophenyl)-2-oxo-1,2-dihydropyridin-3-carboxamide]
0.004 µM | – | Cc1ccc(C(=O)Nc2ccc(Oc3ccc(O)c(-c4ccnc(N)n4)c3)c(F)c2)c(=O)n1-c1ccc(F)cc1 [Example 40, N-(4-(3-(2-aminopyrimidin-4-yl)-4-hydroxyphenoxy)-3-fluorophenyl)-1-(4-fluorophenyl)-6-methyl-2-oxo-1,2-dihydropyridin-3-carboxamide]
0.612 µM | 0.144 µM | CCOc1ccn(-c2ccc(F)cc2)c(=O)c1C(=O)Nc1ccc(-c2ccc(O)c(-c3ccnc(N)n3)c2)c(F)c1 [Example 1, N-(3′-(2-aminopyrimidin-4-yl)-2-fluoro-4′-hydroxy-[1,1′-biphenyl]-4-yl)-4-ethoxy-1-(4-fluorophenyl)-2-oxo-1,2-dihydropyridin-3-carboxamide]

The next lines start with the compound.

SMILES | IC50 (MET) | IC50 (RON)
CCOc1ccn(-c2ccc(F)cc2)c(=O)c1C(=O)Nc1ccc(Oc2ccc(O)c(-c3ccnc(N)n3)c2)c(F)c1 [Example 39, N-(4-(3-(2-aminopyrimidin-4-yl)-4-hydroxyphenoxy)-3-fluorophenyl)-4-ethoxy-1-(4-fluorophenyl)-2-oxo-1,2-dihydropyridin-3-carboxamide] | 0.027 µM | 0.086 µM
Nc1nccc(-c2cc(Oc3ccc(NC(=O)C4(C(=O)Nc5ccc(F)cc5)CC4)cc3F)ccc2O)n1 [Example 41, N-(4-(3-(2-aminopyrimidin-4-yl)-4-hydroxyphenoxy)-3-fluorophenyl)-N-(4-fluorophenyl)cyclopropan-1,1-dicarboxamide] | 0.071 µM | 0.362 µM
CCOc1ccn(-c2ccc(F)cc2)c(=O)c1C(=O)Nc1ccc(Nc2ccc(O)c(-c3ccnc(N)n3)c2)cc1F [Example 34, N-(4-((3-(2-aminopyrimidin-4-yl)-4-hydroxyphenyl)amino)-2-fluorophenyl)-4-ethoxy-1-(4-fluorophenyl)-2-oxo-1,2-dihydropyridin-3-carboxamide] | 0.552 µM | 2.28 µM
CCOc1ccn(-c2ccc(F)cc2)c(=O)c1C(=O)Nc1ccc(Oc2ccc(O)c(-c3cc[nH]n3)c2)c(F)c1 [Example 57, 4-Ethoxy-N-(3-fluoro-4-(4-hydroxy-3-(1H-pyrazol-3-yl)phenoxy)phenyl)-1-(4-fluorophenyl)-2-oxo-1,2-dihydropyridin-3-carboxamide] | 0.16 µM | 4.48 µM
Nc1nccc(-c2cc(Oc3ccc(NC(=O)c4cc(Br)cn(-c5ccc(F)cc5)c4=O)cc3F)ccc2O)n1 [Example 44, N-(4-(3-(2-aminopyrimidin-4-yl)-4-hydroxyphenoxy)-3-fluorophenyl)-5-bromo-1-(4-fluorophenyl)-2-oxo-1,2-dihydropyridin-3-carboxamide] | 0.046 µM | 0.137 µM
COc1ccn(-c2ccc(F)cc2)c(=O)c1C(=O)Nc1ccc(-c2ccc(O)c(-c3ccnc(N)n3)c2)c(F)c1 [Example 2, N-(3′-(2-aminopyrimidin-4-yl)-2-fluoro-4′-hydroxy-[1,1′-biphenyl]-4-yl)-1-(4-fluorophenyl)-4-methoxy-2-oxo-1,2-dihydropyridin-3-carboxamide] | 0.583 µM | 0.131 µM
CCOc1ccn(-c2ccc(F)cc2)c(=O)c1C(=O)Nc1ccc(Oc2ccc(O)c(-c3ccncn3)c2)c(F)c1 [Example 54, 4-Ethoxy-N-(3-fluoro-4-(4-hydroxy-3-(pyrimidin-4-yl)phenoxy)phenyl)-1-(4-fluorophenyl)-2-oxo-1,2-dihydropyridin-3-carboxamide] | 0.067 µM | 0.351 µM
COc1ccn(-c2ccc(F)cc2)c(=O)c1C(=O)Nc1ccc(Oc2ccc(O)c(-c3ccnc(N)n3)c2)c(F)c1 [Example 42, N-(4-(3-(2-aminopyrimidin-4-yl)-4-hydroxyphenoxy)-3-fluorophenyl)-1-(4-fluorophenyl)-4-methoxy-2-oxo-1,2-dihydropyridin-3-carboxamide] | 0.053 µM | 0.355 µM
Nc1nccc(-c2cc(Oc3ccc(NC(=O)c4ccc(C(F)(F)F)n(-c5ccc(F)cc5)c4=O)cc3F)ccc2O)n1 [Example 49, N-(4-(3-(2-aminopyrimidin-4-yl)-4-hydroxyphenoxy)-3-fluorophenyl)-1-(4-fluorophenyl)-2-oxo-6-(trifluoromethyl)-1,2-dihydropyridin-3-carboxamide] | 0.067 µM | 0.163 µM
Cn1cc(-c2cc(C(=O)Nc3ccc(Oc4ccc(O)c(-c5ccnc(N)n5)c4)c(F)c3)c(=O)n(-c3ccc(F)cc3)c2)cn1 [Example 47, N-(4-(3-(2-aminopyrimidin-4-yl)-4-hydroxyphenoxy)-3-fluorophenyl)-1-(4-fluorophenyl)-5-(1-methyl-1H-pyrazol-4-yl)-2-oxo-1,2-dihydropyridin-3-carboxamide] | 0.179 µM | 0.882 µM
Cn1cc(-c2cc(C(=O)Nc3ccc(-c4ccc(O)c(-c5ccnc(N)n5)c4)c(F)c3)c(=O)n(-c3ccc(F)cc3)c2)cn1 [Example 7, N-(3′-(2-aminopyrimidin-4-yl)-2-fluoro-4′-hydroxy-[1,1′-biphenyl]-4-yl)-1-(4-fluorophenyl)-5-(1-methyl-1H-pyrazol-4-yl)-2-oxo-1,2-dihydropyridin-3-carboxamide] | 2.23 µM | 0.942 µM
CC(=O)c1cc(Oc2ccc(NC(=O)c3ccc(C)n(-c4ccc(F)cc4)c3=O)cc2F)ccc1O [Example 37, N-(4-(3-acetyl-4-hydroxyphenoxy)-3-fluorophenyl)-1-(4-fluorophenyl)-6-methyl-2-oxo-1,2-dihydropyridin-3-carboxamide] | 0.954 µM | –
Nc1nccc(-c2cc(-c3ccc(NC(=O)c4cc(C5CC5)cn(-c5ccc(F)cc5)c4=O)cc3F)ccc2O)n1 [Example 8] | 2.09 µM | 0.834 µM
C/C(=N\O)c1cc(Oc2ccc(NC(=O)c3ccc(C)n(-c4ccc(F)cc4)c3=O)cc2F)ccc1O [Example 38, (E)-N-(3-fluoro-4-(4-hydroxy-3-(1-(hydroxyimino)ethyl)phenoxy)phenyl)-1-(4-fluorophenyl)-6-methyl-2-oxo-1,2-dihydropyridin-3-carboxamide] | 0.354 µM | –
CCOc1ccn(-c2ccc(F)cc2)c(=O)c1C(=O)Nc1ccc(Nc2ccc(O)c(-c3ccnc(N)n3)c2)c(F)c1 [Example 28, N-(4-((3-(2-aminopyrimidin-4-yl)-4-hydroxyphenyl)amino)-3-fluorophenyl)-4-ethoxy-1-(4-fluorophenyl)-2-oxo-1,2-dihydropyridin-3-carboxamide] | 0.18 µM | 1.17 µM
O=C(Nc1ccc(F)cc1)C1(C(=O)Nc2ccc(Oc3ccc(O)c(-c4ccncn4)c3)c(F)c2)CC1 [Example 56, N-(3-fluoro-4-(4-hydroxy-3-(pyrimidin-4-yl)phenoxy)phenyl)-N-(4-fluorophenyl)cyclopropan-1,1-dicarboxamide] | 0.281 µM | 3.35 µM
